In brackets after ≈: the same amount, converted by molar mass. Read-outs that look alike come from different tables or passages of the source.
Assays:
[1] = Determination of the solubility in organic solvents; format: physicochemical; conditions: for Solubility (g/ml) DMF / Solubility (g/ml) THF / Solubility (g/ml) Chloroform / Solubility (g/ml) Dichloromethane / Solubility (g/ml) Xylene / solubility: 5 ml, added until saturation; for Solubility (g/ml) Xylene: solvent xylene; for solubility: organic solvent or mixture, thermodynamic from solid
Description: (Determination of the Solubility)
Respectively, 5 ml of the solvents of THF, DMF, xylene, chloroform and dichloromethane were measured and poured into 20 ml of tubular bottoms with screw caps. […] The solubility (g/ml) to the respective solvent was determined from the weight of the triarylamine dimer derivative added until saturation.

[2] = Differential scanning calorimetry (DSC), glass transition point; format: physicochemical; conditions: determined by DSC
Source text: (Differential Scanning Calorimetry (DSC))
The results of the glass transition point (Tg) determined by DSC of the triarylamine dimer derivatives obtained in Examples 1 to 6 are shown in Table 3.

[3] = chloroform, solvent chloroform, read-out: Solubility (g/ml) Chloroform
[4] = dichloromethane, solvent dichloromethane, read-out: Solubility (g/ml) Dichloromethane

Solubility (g/ml) DMF ([1]; solvent DMF) [g/mL] | Solubility (g/ml) THF ([1]; solvent THF) [g/mL] | Solubility (g/ml) Chloroform ([1]; solvent chloroform) [g/mL] | Solubility (g/ml) Dichloromethane ([1]; solvent dichloromethane) [g/mL] | Solubility (g/ml) Xylene [1] [g/mL] | Glass Transition Point(Tg) [2] [Degrees C.] | Solubility in organic solvent (in words) [1] | solubility [1, 3] [g/mL] | Solubility compared with alpha-NPD (times higher) ([1]; organic solvents of Table 2) | solubility ([1]; DMF, solvent DMF, read-out: Solubility (g/ml) DMF) [g/mL] | solubility ([1]; THF, solvent THF, read-out: Solubility (g/ml) THF) [g/mL] | solubility [1, 4] [g/mL] | SMILES
0.033 (≈ 56.1 mM) | 0.270 (≈ 459 mM) | 0.452 (≈ 768 mM) | 0.226 (≈ 384 mM) | 0.162 (≈ 275 mM) | – | – | – | – | – | – | – | c1ccc(N(c2ccc(-c3ccc(N(c4ccccc4)c4ccc5ccccc5c4)cc3)cc2)c2ccc3ccccc3c2)cc1 [Comparative Example6, N,N′-diphenyl-N,N′-bis(2-naphthyl)-4,4′-diaminobiphenyl]
0.060 (≈ 116 mM) | 0.732 (≈ 1420 mM) | 0.892 (≈ 1730 mM) | 0.696 (≈ 1350 mM) | 0.334 (≈ 646 mM) | 75.0 | – | – | – | – | – | – | Cc1ccc(N(c2ccccc2)c2ccc(-c3ccc(N(c4ccccc4)c4ccc(C)cc4)cc3)cc2)cc1 [Example2, N,N′-diphenyl-N,N′-bis(4-tolyl)-4,4′-diaminobiphenyl]
– | – | – | – | – | 63.2 | – | – | – | – | – | – | Cc1cccc(N(c2ccccc2)c2ccc(-c3ccc(N(c4ccccc4)c4cccc(C)c4)cc3)cc2)c1 [Example1, N,N′-diphenyl-N,N′-bis(3-tolyl)-4,4′-diaminobiphenyl]
0.012 (≈ 20.4 mM) | 0.235 (≈ 399 mM) | 0.395 (≈ 671 mM) | 0.195 (≈ 331 mM) | 0.103 (≈ 175 mM) | – | – | – | – | – | – | – | c1ccc(N(c2ccc(-c3ccc(N(c4ccccc4)c4ccc5ccccc5c4)cc3)cc2)c2ccc3ccccc3c2)cc1 [Comparative Example5, N,N′-diphenyl-N,N′-bis(2-naphthyl)-4,4′-diaminobiphenyl]
0.301 (≈ 511 mM) | > 0.795 | – | 0.471 (≈ 800 mM) | 0.558 (≈ 948 mM) | 99.4 | very high solubility | 0.632 (≈ 1070 mM) | ten to several hundreds times higher | – | – | – | c1ccc(N(c2ccc(-c3ccc(N(c4ccccc4)c4ccc5ccccc5c4)cc3)cc2)c2ccc3ccccc3c2)cc1 [Example5, N,N′-diphenyl-N,N′-bis(2-naphthyl)-4,4′-diaminobiphenyl]
0.001 (≈ 1.7 mM) | 0.009 (≈ 15.3 mM) | 0.024 (≈ 40.8 mM) | 0.021 (≈ 35.7 mM) | 0.002 (≈ 3.4 mM) | – | – | – | – | – | – | – | c1ccc(N(c2ccc(-c3ccc(N(c4ccccc4)c4cccc5ccccc45)cc3)cc2)c2cccc3ccccc23)cc1 [Comparative Example4, N,N′-diphenyl-N,N′-bis(1-naphthyl)-4,4′-diaminobiphenyl]
– | – | – | – | 0.152 (≈ 294 mM) | – | – | 0.613 (≈ 1190 mM) | – | 0.036 (≈ 69.7 mM) | 0.413 (≈ 799 mM) | 0.397 (≈ 768 mM) | Cc1ccc(N(c2ccccc2)c2ccc(-c3ccc(N(c4ccccc4)c4ccc(C)cc4)cc3)cc2)cc1 [Comparative Example2, N,N′-diphenyl-N,N′-bis(4-tolyl)-4,4′-diaminobiphenyl]
– | > 0.795 | – | – | – | 99.4 | – | – | – | – | – | – | c1ccc(N(c2ccc(-c3ccc(N(c4ccccc4)c4ccc5ccccc5c4)cc3)cc2)c2ccc3ccccc3c2)cc1 [Example6, N,N′-diphenyl-N,N′-bis(2-naphthyl)-4,4′-diaminobiphenyl]
0.028 (≈ 47.6 mM) | 0.202 (≈ 343 mM) | 0.368 (≈ 625 mM) | 0.209 (≈ 355 mM) | 0.155 (≈ 263 mM) | – | – | – | – | – | – | – | c1ccc(N(c2ccc(-c3ccc(N(c4ccccc4)c4ccc5ccccc5c4)cc3)cc2)c2ccc3ccccc3c2)cc1 [Comparative Example7, N,N′-diphenyl-N,N′-bis(2-naphthyl)-4,4′-diaminobiphenyl]
0.007 (≈ 11.9 mM) | 0.028 (≈ 47.6 mM) | – | – | 0.009 (≈ 15.3 mM) | 98.8 | – | 0.043 (≈ 73 mM) | – | – | – | 0.029 (≈ 49.3 mM) | c1ccc(N(c2ccc(-c3ccc(N(c4ccccc4)c4cccc5ccccc45)cc3)cc2)c2cccc3ccccc23)cc1 [Example4, N,N′-diphenyl-N,N′-bis(1-naphthyl)-4,4′-diaminobiphenyl]
